One experiment has as its target JAK1 (Homo sapiens (Human), UniProt P23458). Nature of the experiment: Jak biochemical HTRF assay, JAK1. Conditions: recombinant purified GST-tagged catalytic domain; HTRF format; [ATP] 31.8 μM. From the text:
(§1) Jak Biochemical HTRF Assay Protocol
(§2) Subsequent reagent additions employed an Agilent Bravo.
For orientation: In TR-FRET formats the signal depends on donor and acceptor labels being close together.

A further experiment deals with JAK2 (Homo sapiens (Human), UniProt O60674). Briefly: Jak biochemical HTRF assay, JAK2. As to conditions: recombinant purified GST-tagged catalytic domain; HTRF format; [ATP] 8.5 μM.
JAK2, sequence (O60674 849-1124): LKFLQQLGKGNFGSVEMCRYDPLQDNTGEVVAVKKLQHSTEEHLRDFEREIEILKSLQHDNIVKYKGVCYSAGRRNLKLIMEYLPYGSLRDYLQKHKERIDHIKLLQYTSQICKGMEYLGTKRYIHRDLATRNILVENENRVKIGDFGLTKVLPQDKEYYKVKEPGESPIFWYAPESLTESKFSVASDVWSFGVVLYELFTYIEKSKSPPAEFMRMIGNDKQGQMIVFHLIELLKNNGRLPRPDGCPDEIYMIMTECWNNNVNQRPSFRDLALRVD
Text: as §1, §2

JAK1, sequence (P23458 875-1153): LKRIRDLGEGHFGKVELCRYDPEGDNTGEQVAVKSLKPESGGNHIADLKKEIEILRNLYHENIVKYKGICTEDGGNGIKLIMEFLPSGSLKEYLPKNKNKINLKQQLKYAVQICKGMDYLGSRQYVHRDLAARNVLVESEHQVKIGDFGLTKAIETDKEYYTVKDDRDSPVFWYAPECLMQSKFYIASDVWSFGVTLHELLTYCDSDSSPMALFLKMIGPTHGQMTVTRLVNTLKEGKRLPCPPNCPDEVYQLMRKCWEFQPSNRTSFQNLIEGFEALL

The term IC50 denotes the concentration that gives 50% inhibition. Take `CN(C)CCOC(=O)N1CC[C@@H](C#N)C(n2cc(C(N)=O)c(Nc3ccc(F)cc3)n2)C1` (mixture of isomers) [Example 5-86, 2-(dimethylamino)ethyl (3S,4R and 3R,4S)-3-{4-carbamoyl-3-[(4-fluorophenyl)amino]-1H-pyrazol-1-yl}-4-cyanopiperidine-1-carboxylate]: the 50% inhibitory concentration (IC50) on JAK1 was found to be 9 nM; on JAK2, 352 nM.

With `N#CCC1(COC(=O)N2CC[C@@H](C#N)C(n3cc(C(N)=O)c(Nc4ccc(F)cc4)n3)C2)CC1` (mixture of isomers) [Example 5-88, [1-(cyanomethyl)cyclopropyl]methyl (3S,4R and 3R,4S)-3-{4-carbamoyl-3-[(4-fluorophenyl)amino]-1H-pyrazol-1-yl}-4-cyanopiperidine-1-carboxylate], the results for the concentration for half-maximal inhibition (IC50) on JAK1 and at JAK2 were 0.7 nM and 15 nM, respectively.

Turning to `N#C[C@@H]1CCN(C(=O)OC2COC2)CC1n1cc(C(N)=O)c(Nc2ccc(F)cc2)n1` (mixture of isomers) [Example 5-89, oxetan-3-yl (3S,4R and 3R,4S)-3-{4-carbamoyl-3-[(4-fluorophenyl)amino]-1H-pyrazol-1-yl}-4-cyanopiperidine-1-carboxylate], the IC50 at JAK1 was found to be 3 nM; at JAK2, 43 nM.

Regarding `N#C[C@@H]1CCN(Cc2cccnn2)CC1n1cc(C(N)=O)c(Nc2ccc(F)cc2)n1` (mixture of isomers) [Example 6-1, 1-[(3S,4R and 3R,4S)-4-Cyano-1-(pyridazin-3-ylmethyl)piperidin-3-yl]-3-[(4-fluorophenyl)amino]-1H-pyrazole-4-carboxamide], the IC50 at JAK1 came out at 6 nM; at JAK2, 77 nM.

As for `N#C[C@@H]1CCN(Cc2cnccn2)C[C@H]1n1cc(C(N)=O)c(Nc2ccc(F)cc2)n1` (racemic) [Example 6-2, 1-[(3S,4R and 3R,4S)-4-cyano-1-(pyrazin-2-ylmethyl)piperidin-3-yl]-3-[(4-fluorophenyl)amino]-1H-pyrazole-4-carboxamide], the 50% inhibitory concentration (IC50) at JAK1 is 2 nM; at JAK2, 26 nM.

`N#C[C@@H]1CCN(Cc2ccon2)C[C@H]1n1cc(C(N)=O)c(Nc2ccc(F)cc2)n1` (racemic) [Example 6-3, 1-[(3S,4R and 3R,4S)-4-cyano-1-(isoxazol-3-ylmethyl)piperidin-3-yl]-3-[(4-fluorophenyl)amino]-1H-pyrazole-4-carboxamide]: the figures for the half-inhibitory concentration (IC50) on JAK1 and at JAK2 were 2 nM and 13 nM, respectively.

As for `N#C[C@@H]1CCN(Cc2cocn2)C[C@H]1n1cc(C(N)=O)c(Nc2ccc(F)cc2)n1` (racemic) [Example 6-4, 1-[(3S,4R and 3R,4S)-4-cyano-1-(1,3-oxazol-4-ylmethyl)piperidin-3-yl]-3-[(4-fluorophenyl)amino]-1H-pyrazole-4-carboxamide], the results for the 50% inhibitory concentration (IC50) at JAK1 and on JAK2 were 2 nM and 18 nM, respectively.

Consider `Cn1ccc(CN2CC[C@@H](C#N)[C@H](n3cc(C(N)=O)c(Nc4ccc(F)cc4)n3)C2)n1` (racemic) [Example 6-5, 1-{(3S,4R and 3R,4S)-4-cyano-1-[(1-methyl-1H-pyrazol-3-yl)methyl]piperidin-3-yl}-3-[(4-fluorophenyl)amino]-1H-pyrazole-4-carboxamide], for which the half-inhibitory concentration (IC50) is 2 nM on JAK1 and 14 nM at JAK2.

Turning to `N#C[C@@H]1CCN(Cc2cscn2)C[C@H]1n1cc(C(N)=O)c(Nc2ccc(F)cc2)n1` (racemic) [Example 6-6, 1-[(3S,4R and 3R,4S)-4-cyano-1-(1,3-thiazol-4-ylmethyl)piperidin-3-yl]-3-[(4-fluorophenyl)amino]-1H-pyrazole-4-carboxamide], the half-maximal inhibitory concentration (IC50) is 2 nM at JAK1 and 19 nM at JAK2.

Take `N#C[C@@H]1CCN(Cc2ncco2)C[C@H]1n1cc(C(N)=O)c(Nc2ccc(F)cc2)n1` (racemic) [Example 6-8, 1-[(3S,4R and 3R,4S)-4-cyano-1-(1,3-oxazol-2-ylmethyl)piperidin-3-yl]-3-[(4-fluorophenyl)amino]-1H-pyrazole-4-carboxamide]: the results for the IC50 at JAK1 and at JAK2 were 2 nM and 22 nM, respectively.

For `N#C[C@@H]1CCN(CCC2CCOCC2)C[C@H]1n1cc(C(N)=O)c(Nc2ccc(F)cc2)n1` (racemic) [Example 6-10, 1-{(3S,4R and 3R,4S)-4-cyano-1-[2-(tetrahydro-2H-pyran-4-yl)ethyl]piperidin-3-yl}-3-[(4-fluorophenyl)amino]-1H-pyrazole-4-carboxamide], the IC50 on JAK1 came out at 6 nM; at JAK2, 74 nM.

Take `CC(C)(O)C1CC(CN2CC[C@@H](C#N)[C@H](n3cc(C(N)=O)c(Nc4ccc(F)cc4)n3)C2)C1` (mixture of isomers) [Example 6-11, 1-[(3S,4R and 3R,4S)-4-cyano-1-{[3-(1-hydroxy-1-methylethyl)cyclobutyl]methyl}piperidin-3-yl]-3-[(4-fluorophenyl)amino]-1H-pyrazole-4-carboxamide]: the values for the IC50 at JAK1 and on JAK2 were 25 nM and 533 nM, respectively.

As to `Cn1nccc1CN1CC[C@@H](C#N)[C@H](n2cc(C(N)=O)c(Nc3ccc(F)cc3)n2)C1` (racemic) [Example 6-13, 1-{(3S,4R and 3R,4S)-4-cyano-1-[(1-methyl-1H-pyrazol-5-yl)methyl]piperidin-3-yl}-3-[(4-fluorophenyl)amino]-1H-pyrazole-4-carboxamide], the 50% inhibitory concentration (IC50) on JAK1 was 2 nM; on JAK2 it was 20 nM.

Consider `Cc1cc(CN2CC[C@@H](C#N)[C@H](n3cc(C(N)=O)c(Nc4ccc(F)cc4)n3)C2)no1` (racemic) [Example 6-14, 1-{(3S,4R and 3R,4S)-4-cyano-1-[(5-methylisoxazol-3-yl)methyl]piperidin-3-yl}-3-[(4-fluorophenyl)amino]-1H-pyrazole-4-carboxamide], for which the figures for the half-inhibitory concentration (IC50) at JAK1 and at JAK2 were 4 nM and 42 nM, respectively.

Take `Cc1c(CN2CC[C@@H](C#N)[C@H](n3cc(C(N)=O)c(Nc4ccc(F)cc4)n3)C2)cnn1C` (racemic) [Example 6-15, 1-{(3S,4R and 3R,4S)-4-cyano-1-[(1,5-dimethyl-1H-pyrazol-4-yl)methyl]piperidin-3-yl}-3-[(4-fluorophenyl)amino]-1H-pyrazole-4-carboxamide]: the results for the IC50 at JAK1 and at JAK2 were 1 nM and 20 nM, respectively.

For `N#C[C@@H]1CCN(Cc2ccc(F)cn2)C[C@H]1n1cc(C(N)=O)c(Nc2ccc(F)cc2)n1` (racemic) [Example 6-16, 1-{(3S,4R and 3R,4S)-4-cyano-1-[(5-fluoropyridin-2-yl)methyl]piperidin-3-yl}-3-[(4-fluorophenyl)amino]-1H-pyrazole-4-carboxamide], the figures for the half-inhibitory concentration (IC50) on JAK1 and on JAK2 were 0.7 nM and 14 nM, respectively.

Consider `CC1=NOC(CN2CC[C@@H](C#N)[C@H](n3cc(C(N)=O)c(Nc4ccc(F)cc4)n3)C2)C1` (mixture of isomers) [Example 6-20, 1-{(3S,4R and 3R,4S)-4-cyano-1-[(3-methyl-4,5-dihydroisoxazol-5-yI)methyl]piperidin-3-yl}-3-[(4-fluorophenyl)amino]-1H-pyrazole-4-carboxamide], for which the IC50 on JAK1 stood at 6 nM; at JAK2 it was 98 nM.

Take `N#C[C@@H]1CCN(CC2CCOC2)C[C@H]1n1cc(C(N)=O)c(Nc2ccc(F)cc2)n1` (mixture of isomers) [Example 6-21, 1-[(3S,4R and 3R,4S)-4-cyano-1-(tetrahydrofuran-3-ylmethyl)piperidin-3-yl]-3-[(4-fluorophenyl)amino]-1H-pyrdzole-4-carboxamide]: the IC50 at JAK1 was found to be 6 nM; on JAK2 it was 63 nM.

For the compound `N#C[C@@H]1CN(Cc2cccnn2)CC[C@H]1n1cc(C(N)=O)c(Nc2ccc(F)cc2)n1` (racemic) [Example 6-22, 1-[(3R,4R and 3S,4S)-3-cyano-1-(pyridazin-3-ylmethyl)piperidin-4-yl]-3-[(4-fluorophenyl)amino]-1H-pyrazole-4-carboxamide], the IC50 at JAK1 turned out to be 19 nM; on JAK2, 220 nM.

On to `N#C[C@@H]1CN(Cc2ccon2)CC[C@H]1n1cc(C(N)=O)c(Nc2ccc(F)cc2)n1` (racemic) [Example 6-24, 1-[(3R,4R and 3S,4S)-3-cyano-1-(isoxazol-3-ylmethyl)piperidin-4-yl]-3-[(4-fluorophenyl)amino]-1H-pyrazole-4-carboxamide], for which the concentration for half-maximal inhibition (IC50) on JAK1 worked out at 3 nM; at JAK2, 34 nM.

For `Cc1cc(CN2CC[C@@H](n3cc(C(N)=O)c(Nc4ccc(F)cc4)n3)[C@H](C#N)C2)no1` (racemic) [Example 6-33, 1-{(3R,4R and 3S,4S)-3-cyano-1-[(5-methylisoxazol-3-yl)methyl]piperidin-4-yl}-3-[(4-fluorophenyl)amino]-1H-pyrazole-4-carboxamide], the figures for the IC50 at JAK1 and at JAK2 were 7 nM and 92 nM, respectively.

`Cc1c(CN2CC[C@@H](n3cc(C(N)=O)c(Nc4ccc(F)cc4)n3)[C@H](C#N)C2)cnn1C` (racemic) [Example 6-34, 1-{(3R,4R and 3S,4S)-3-cyano-1-[(1,5-dimethyl-1H-pyrazol-4-yl)methyl]piperidin-4-yl}-3-[(4-fluorophenyl)amino]-1H-pyrazole-4-carboxamide]: the IC50 was 10 nM on JAK1 and 111 nM at JAK2.

For `N#C[C@@H]1CN(Cc2cccnc2F)CC[C@H]1n1cc(C(N)=O)c(Nc2ccc(F)cc2)n1` (racemic) [Example 6-35, 1-{(3R,4R and 3S,4S)-3-cyano-1-[(2-fluoropyridin-3-yl)methyl]piperidin-4-yl}-3-[(4-fluorophenyl)amino]-1H-pyrazole-4-carboxamide], the results for the half-inhibitory concentration (IC50) on JAK1 and at JAK2 were 5 nM and 79 nM, respectively.

For `Cc1ncc(CN2CC[C@@H](n3cc(C(N)=O)c(Nc4ccc(F)cc4)n3)[C@H](C#N)C2)s1` (racemic) [Example 6-37, 1-{(3R,4R and 3S,4S)-3-cyano-1-[(2-methyl-1,3-thiazol-5-yl)methyl]piperidin-4-yl}-3-[(4-fluorophenyl)amino]-1H-pyrazole-4-carboxamide], the IC50 at JAK1 was 5 nM; on JAK2 it was 104 nM.

In the case of `CCn1ccnc1CN1CC[C@@H](n2cc(C(N)=O)c(Nc3ccc(F)cc3)n2)[C@H](C#N)C1` (racemic) [Example 6-38, 1-{(3R,4R and 3S,4S)-3-cyano-1-[(1-ethyl-1H-imidazol-2-yl)methyl]piperidin-4-yl}-3-[(4-fluorophenyl)amino]-1H-pyrdzole-4-carboxamide], the IC50 at JAK1 is 7 nM; at JAK2, 82 nM.

(Values after patent US9394282B2, “Pyrazole carboxamides as Janus kinase inhibitors” (Merck Sharp & Dohme Corp., priority 2011, dated 2016).)
